Assay results published in patent publication US8273852B2, “Medium chain length polyhydroxyalkanoate polymer and method of making same” (Queen's University at Kingston, priority 2009, dated 2012).

Legend:
[1] = test system: β-oxidation pathway; test: Fed-batch fermentation, cofeeding of nonanoic acid, glucose and acrylic acid; type: cell-based, Pseudomonas putida KT2440; conditions: nonanoic acid:glucose:acrylic acid 1.25:1:0.03 (w/w/w); by GC; throughout 32 hours fermentation
Method: Fed-batch fermentations were conducted in a 5 L stirred tank bioreactor with 3 L working volume (Minifors, INFORS HT, Bottmingen, Switzerland). The specific growth rate was controlled at 0.25 h^−1 or 0.15 h^−1 by exponentially feeding the carbon sources as growth-limiting nutrients. β-oxidation inhibitor was added with the glucose feeding solution at a fixed mass as specified in the related examples. […]
(§1) Dried samples were weighed to obtain dry biomass amounts. PHA content and composition were determined by gas chromatographic method as described below (Sun, Z., et al. (2007). Appl. Microbiol. Biotechnol., 74:69). […]
(§2) Known amount of dried biomass, or purified MCL-PHA, or MCL-PHA standard with known composition and elution time of each of its components, were reacted in 2 mL chloroform plus 1 mL methanol containing 15% (v/v) concentrated sulfuric acid as acidifying agent and 0.2% (w/v) benzoic acid as internal standard, at 100° C. for 4 hours. […] Methyl-3-hydroxyalkanoate was identified and its molar amount was calculated by comparing peak area to the corresponding peak of known methyl-3-hydroxyalkanoate generated from known MCL-PHA standard, which was characterized by NMR and GC/MS. […]

[2] = test system: β-oxidation pathway; test: Continuous fermentation, cofeeding of octanoic acid and glucose, increasing acrylic acid; type: cell-based, Pseudomonas putida KT2440; conditions: inflow acrylic acid 0.2 g/L
Method: (§3) Continuous fermentations were carried out in a 1.5 L stirred tank bioreactor (Bioflo IIc, New Brunswick Scientific, N.J., USA) with a working volume of 1.1 L. The fermentor was operated at 28.5±1° C. and the pH was automatically controlled at 6.85±0.05 using 2 N potassium hydroxide solution. The dissolved oxygen was monitored with an Ingold polarographic probe (available from Mettler-Toledo Ingold Inc., Bedford, Mass., USA) and maintained no lower than 30% air saturation with an aeration rate of 0.8 vvm (void volumes per minute) and an agitation speed up to 900 rpm. […] All other aqueous medium was mixed and fed together. The dilution rate of all continuous fermentations was controlled at […] by fixing the working volume and a constant aqueous medium feeding rate.
During shake flask, batch, fed-batch, or continuous cultivations, fermentation broth samples were taken. Known amounts of such broths were centrifuged to obtain the medium's supernatant and concentrated biomass. The biomasses were washed with distilled water, centrifuged again, re-suspended, frozen, and lyophilized to obtain dried biomass. […]
as §1

[3] = test system: β-oxidation pathway; test: Continuous fermentation, nonanoic acid as sole carbon source, increasing acrylic acid; type: cell-based, Pseudomonas putida KT2440
Method: (§4) Continuous fermentations were carried out in a 1.5 L stirred tank bioreactor (Bioflo IIc, New Brunswick Scientific, N.J., USA) with a working volume of 1.1 L. The fermentor was operated at 28.5±1° C. and the pH was automatically controlled at 6.85±0.05 using 2 N potassium hydroxide solution. The dissolved oxygen was monitored with an Ingold polarographic probe (available from Mettler-Toledo Ingold Inc., Bedford, Mass., USA) and maintained no lower than 30% air saturation with an aeration rate of 0.8 vvm (void volumes per minute) and an agitation speed up to 900 rpm. Nonanoic acid was fed separately at controlled speed by a peristaltic nutrient pump on the bioreactor. All other aqueous medium was mixed and fed together. The dilution rate of all continuous fermentations was controlled at […] by fixing the working volume and a constant aqueous medium feeding rate.
During shake flask, batch, fed-batch, or continuous cultivations, fermentation broth samples were taken. Known amounts of such broths were centrifuged to obtain the medium's supernatant and concentrated biomass. The biomasses were washed with distilled water, centrifuged again, re-suspended, frozen, and lyophilized to obtain dried biomass. The supernatant was used to analyze carbon source, inhibitor, and nutrient concentration. […]
as §1, §2

[4] = test system: Pseudomonas putida KT2440; test: Shake flask growth with acrylic acid, absorbance at 650 nm; type: cell-based; conditions: shake flasks
Method: A basic glucose-only shake flask medium was a 100 mL liquid medium in a 500 mL Erlenmeyer flask. The medium comprised (g L^−1): (NH4)2SO4 (4.70), MgSO4.7H2O (0.80), Na2HPO4.7H2O (12.0), KH2PO4 (2.70), glucose (9.0), nutrient broth (1.0).
The effect of acrylic acid on cell growth was determined using Pseudomonas putida KT2440 (ATCC 47054). Pseudonomas putida KT2440 (ATCC 47054) was maintained on nutrient agar plates at 4° C. before inoculation. The toxicity of a β-oxidation inhibitor, acrylic acid, to the growth of Pseudomonas putida KT2440 was determined by shake flask experiment. The cultivation conditions were 28° C. in a New Brunswick Shaker-Incubator at 200 rpm. The medium used was the basic glucose-only shake flask medium described above, plus appropriate amount of acrylic acid.
500 mL Erlenmeyer flasks were used with each containing 100 mL of medium. In addition to the basic medium described above, increasing concentrations of acrylic acid (AA) at 0, 0.2, 0.4, 0.8, 2.0 g/L were prepared in each flask. The first set of such flasks was cultured for 12 h and the second set of such flasks was cultured for 24 h. After the specified culturing time, a sample was taken to measure the absorbance at 650 nm in the spectrophotometer.

[5] = test system: β-oxidation pathway; test: Continuous fermentation, cofeeding of dodecanoic acid and glucose, increasing acrylic acid; type: cell-based, Pseudomonas putida KT2440
Method: as §3
During shake flask, batch, fed-batch, or continuous cultivations, fermentation broth samples were taken. Known amounts of such broths were centrifuged to obtain the medium's supernatant and concentrated biomass. The biomasses were washed with distilled water, centrifuged again, re-suspended, frozen, and lyophilized to obtain dried biomass. The supernatant was used to analyze carbon source, inhibitor, and nutrient concentration. The dried biomass was used to obtain the cell concentration, cellular PHA content and composition.
as §1, §2

[6] = test system: β-oxidation pathway; test: Continuous fermentation, cofeeding of nonanoic acid and glucose, increasing acrylic acid; type: cell-based, Pseudomonas putida KT2440; conditions: inhibitor concentration increased from 0 to 0.15 g/L; value at highest concentration
Method: as §4
During shake flask, batch, fed-batch, or continuous cultivations, fermentation broth samples were taken. Known amounts of such broths were centrifuged to obtain the medium's supernatant and concentrated biomass. […]
as §1

Structure (SMILES): C=CC(=O)O [acrylic acid]
- monomeric composition, C9 (3-OH-nonanoate) [1]: 87.8±0.8 mol %
- mole percentage of C8 [2]: 98 mol %
- PHA content ([3]; acrylic acid 0.2 g L^−1, nonanoic acid only carbon source): very little PHA content
- molar C9 fraction of the PHA produced ([3]; at increased inhibitor concentration, nonanoic acid only, maximum reached): about 90%
- acrylic acid concentration that affected monomeric composition ([3]; inflow concentration, nonanoic acid only, steady state): 0.02 g/L
- reduction of Absorbance at λ=650 nm ([4]; acrylic acid 0.2 g L^−1, 12 h and 24 h cultures, glucose medium): two fold
- cell growth ([4]; acrylic acid greater than 0.4 g L^−1): either weak growth or no growth
- mole percentage of C12 ([5]; inflow acrylic acid 0.2 g/L (FIG. 10B)): 60 mol %
- molar C12 content ([5]; inlet acrylic acid 0.1 g L^−1): 34.5%
- molar C12 content ([5]; inlet acrylic acid 0.2 g L^−1): 59%
- intracellular PHN content [6]: ~64%
- mole percentage of C9 [6]: 96 mol %
